# Data: publication PMC5915715, “Inhibitors of both the N-methyl lysyl- and arginyl-demethylase activities of the JmjC oxygenases” (Philosophical Transactions of the Royal Society B: …, 2018)
# T1: KDM4E (JMJD2E); KDM4E(1-377) (Homo sapiens, UniProt B2RXH2)
# T1 construct: residues 1-377 (JmjN and JmjC domains); recombinant, E. coli BL21(DE3)-R3 with pRARE2
# T1 sequence (B2RXH2 1-377): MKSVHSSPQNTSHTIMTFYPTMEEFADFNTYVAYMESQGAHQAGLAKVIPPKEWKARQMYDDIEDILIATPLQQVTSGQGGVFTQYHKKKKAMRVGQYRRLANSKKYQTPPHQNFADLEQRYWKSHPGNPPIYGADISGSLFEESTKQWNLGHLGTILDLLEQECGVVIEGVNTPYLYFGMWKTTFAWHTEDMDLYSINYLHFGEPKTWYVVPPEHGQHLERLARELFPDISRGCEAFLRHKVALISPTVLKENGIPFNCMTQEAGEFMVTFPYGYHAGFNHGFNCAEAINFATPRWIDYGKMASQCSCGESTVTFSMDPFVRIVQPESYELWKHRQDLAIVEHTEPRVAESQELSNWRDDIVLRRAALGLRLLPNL
# Target: T1, KDM4E (JMJD2E); KDM4E(1-377)
# Experiment: RapidFire MS demethylation assay
# Type: biochemical
# Settings: KDM activity: 5 µM H3(1-15)K9me2, 0.25 µM enzyme, 10 µM Fe(II), 100 µM ascorbate, 10 µM 2OG, 50 mM HEPES pH 7.5, 15 min; iron chelator, may act by chelating iron in solution; unreliable (printed s.e.m)
# Description: RapidFire MS demethylation assay on KDM4E (JMJD2E); KDM4E(1-377)
row,pIC50 ± s.e.m. / inhibition of H3(1-15)K9me2 demethylation,Molecule
1,5.82 ± 6.53 -log10(M),O=C(O)CN(CCN(CC(=O)O)CC(=O)O)CC(=O)O [EDTA]

# Substrate: O=C(O)CCC(=O)C(=O)O
# Experiment: steady-state kinetics (supplement)
# Type: biochemical, Homo sapiens
# Settings: 50 mM HEPES pH 7.5, Fe(II), ascorbate, approximate value, peptide substrate not stated
row,Molecule,Km
1,"KDM4E (JMJD2E); KDM4E(1-377) (Homo sapiens) (protein, residues 1-377 (JmjN and JmjC domains); recombinant, E. coli BL21(DE3)-R3 with pRARE2) MKSVHSSPQNTSHTIMTFYPTMEEFADFNTYVAYMESQGAHQAGLAKVIPPKEWKARQMYDDIEDILIATPLQQVTSGQGGVFTQYHKKKKAMRVGQYRRLANSKKYQTPPHQNFADLEQRYWKSHPGNPPIYGADISGSLFEESTKQWNLGHLGTILDLLEQECGVVIEGVNTPYLYFGMWKTTFAWHTEDMDLYSINYLHFGEPKTWYVVPPEHGQHLERLARELFPDISRGCEAFLRHKVALISPTVLKENGIPFNCMTQEAGEFMVTFPYGYHAGFNHGFNCAEAINFATPRWIDYGKMASQCSCGESTVTFSMDPFVRIVQPESYELWKHRQDLAIVEHTEPRVAESQELSNWRDDIVLRRAALGLRLLPNL",10 µM

# Target: T1, KDM4E (JMJD2E); KDM4E(1-377)
# Experiment: RapidFire MS demethylation assay
# Type: biochemical
# Settings: read-out: pIC50 ± s.e.m. / inhibition of H3(1-15)K9me2 demethylation (converted)
row,Molecule,IC50
1,CC(C)c1c(-c2ccccc2)[nH]c2c(C#N)cnn2c1=O [CPI-455],4.47 µM
2,CC(=O)N(O)CCCCCNC(=O)CCC(=O)N(O)CCCCCNC(=O)CCC(=O)N(O)CCCCCN [deferoxamine],2.4 µM
3,O=C(O)CC[C@@H](O)C(=O)O [D-2HG],11.5 µM
4,CCN(CCN(C)C)C(=O)CNCc1cc(C(=O)O)ccn1 [KDM5-C49],2.09 µM
5,O=C(O)/C=C/C(=O)O [fumarate],1950 µM

# Further lines, results first:
row,IC50,Molecule
1,182 µM,CCN(CCN(C)C)C(=O)CNCc1cc(C(N)=O)ccn1 [KDOAM25]
2,4.79 µM,CN(C)CCCNC(=O)c1ccc(-c2cc(O)c3ncccc3c2)cc1 [ML324]
3,148 µM,O=C(O)CCC(=O)O [succinate]
4,13.5 µM,O=C(O)CC[C@H](O)C(=O)O [L-2HG]
